Assay results as given in patent US20090028991A1, “Lactobacillus buchneri strain LN1284 and its use to improve aerobic stability of silage” (Pioneer Hi-Bred International, Inc., priority 2006, published 2009).

Test system: grass silage
Test: Aerobic stability of grass silage (PVC silos, method of Honig)
Parameters: species or system ryegrass
Method: Second cut ryegrass was harvested at PLNC. The grass was determined to have an approximate dry matter of 35%.
Inoculation: Individual strains were supplied as fresh grown overnight culture. Cultures were adjusted to a standard concentration of 5.0×10^7 CFU/mL and applied using a syringe at a rate of 2.2 mL/kg of forage. The application rate for all strains was 1.1×10^5 CFU/g forage. Propionic acid (88%) was applied at a rate of 4.4 mL/kg fresh forage.
PVC Silos: PVC silos were filled at a packing density of 0.288 kg DM/silo (100 kg DM/m^3); approximately 0.82-0.95 kg/silo. Silos were air infused for 24 hours on days 28 and 42, and opened after 50-60 days of ensiling.
Aerobic Stability: The method of Honig (Proc. Of the Eurobac. Conf., P. Lingvall and S. Lindgren (ed.) (12-16 Aug. 1986) Swed. Univ. of Agric. Sci. Grass and Forage Report No. 3-1990. Pp. 76-81. Uppsala, Sweden.) was used for measuring aerobic stability (see Table 2). ROT is defined as the time, in hours, for the silage to heat 1.7° C. after exposure to air. Cumm_DD is the integral value of the area between the time ROT is attained and the end of the experiment. Aerobic dry matter loss (% dry matter) was determined relating the increase in temperature and the time to energy losses occurring in the silage.

CCC(=O)O [Propionic Acid, Propionic acid]
Aerobic deterioration versus control grass silages: significantly less aerobic deterioration than the control
